Assay results from patent publication US12493040B2, “Cancer detection method using sense of smell of nematode” (HIROTSU BIO SCIENCE INC., priority 2013, dated 2025).

Tested on: RNAi-treated eri-1 (mg366) nematodes
Test: RNAi screening of olfactory receptor genes: chemotaxis assay of RNAi-treated nematodes to odorants
Type: in vivo, Caenorhabditis elegans
Conditions: repellent or high concentration of attractant
In short: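 Chemotaxis of adult RNAi-fed eri-1 (mg366) nematodes (30–50 per test) was measured toward low (1 μl, 10^−3 or 10^−4 dilution) or high (1 and 5 μl neat) odorant doses. Knockdown: 4 days feeding on E. coli from Ahringer library with IPTG and ampicillin. Differences called by z score at ±1.96, weaker cutoff ±0.96.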

**Q.** With `CCCCCCCCO` [octanol] as the molecule, how does the chemotaxis index (Control nematodes) read?
**A.** −0.68 ± 0.018

**Q.** And the chemotaxis index (srh-4 RNAi-treated nematodes)?
**A.** −0.17

**Q.** And the chemotaxis index (srh-7 RNAi-treated nematodes)?
**A.** −0.65

**Q.** And the chemotaxis index (srh-8 RNAi-treated nematodes)?
**A.** −0.80

**Q.** What about the chemotaxis index (srh-10 RNAi-treated nematodes) of the same molecule?
**A.** −0.45

**Q.** And the chemotaxis index (srh-11 RNAi-treated nematodes)?
**A.** −0.19

**Q.** And the chemotaxis index (srh-15 RNAi-treated nematodes)?
**A.** −0.85

**Q.** What about the chemotaxis index (srh-16 RNAi-treated nematodes) of the same molecule?
**A.** −0.89

**Q.** What about the chemotaxis index (srh-18 RNAi-treated nematodes) of the same molecule?
**A.** −0.65

**Q.** And the chemotaxis index (srh-19 RNAi-treated nematodes)?
**A.** −0.33

**Q.** And the chemotaxis index (srh-22 RNAi-treated nematodes)?
**A.** −0.48

**Q.** And the chemotaxis index (srh-23 RNAi-treated nematodes)?
**A.** −0.90

**Q.** And the chemotaxis index (srh-24 RNAi-treated nematodes)?
**A.** −0.56

**Q.** And the chemotaxis index (srh-25 RNAi-treated nematodes)?
**A.** −0.90

**Q.** What about the chemotaxis index (srh-27 RNAi-treated nematodes) of the same molecule?
**A.** −0.68

**Q.** What about the chemotaxis index (srh-28 RNAi-treated nematodes) of the same molecule?
**A.** −0.73

**Q.** What about the chemotaxis index (srh-36 RNAi-treated nematodes) of the same molecule?
**A.** −0.72

**Q.** What about the chemotaxis index (srh-37 RNAi-treated nematodes) of the same molecule?
**A.** −0.88

**Q.** What about the chemotaxis index (srh-39 RNAi-treated nematodes) of the same molecule?
**A.** −0.50

**Q.** And the chemotaxis index (srh-40 RNAi-treated nematodes)?
**A.** −0.92

**Q.** What about the chemotaxis index (srh-41 RNAi-treated nematodes) of the same molecule?
**A.** −0.80

**Q.** What about the chemotaxis index (srh-44 RNAi-treated nematodes) of the same molecule?
**A.** −0.52

**Q.** What about the chemotaxis index (srh-45 RNAi-treated nematodes) of the same molecule?
**A.** −0.87

**Q.** What about the chemotaxis index (srh-46 RNAi-treated nematodes) of the same molecule?
**A.** −0.87

**Q.** And the chemotaxis index (srh-48 RNAi-treated nematodes)?
**A.** −0.83

**Q.** What about the chemotaxis index (srh-49 RNAi-treated nematodes) of the same molecule?
**A.** −0.57

**Q.** And the chemotaxis index (srh-50 RNAi-treated nematodes)?
**A.** −0.89

**Q.** And the chemotaxis index (srh-51 RNAi-treated nematodes)?
**A.** −0.89

**Q.** And the chemotaxis index (srh-52 RNAi-treated nematodes)?
**A.** −0.79

**Q.** What about the chemotaxis index (srh-55 RNAi-treated nematodes) of the same molecule?
**A.** −0.95

**Q.** What about the chemotaxis index (srh-59 RNAi-treated nematodes) of the same molecule?
**A.** −0.55

**Q.** What about the chemotaxis index (srh-60 RNAi-treated nematodes) of the same molecule?
**A.** −0.52

**Q.** What about the chemotaxis index (srh-61 RNAi-treated nematodes) of the same molecule?
**A.** −0.77

**Q.** What about the chemotaxis index (srh-67 RNAi-treated nematodes) of the same molecule?
**A.** −0.66

**Q.** And the chemotaxis index (srh-68 RNAi-treated nematodes)?
**A.** −0.79

**Q.** What about the chemotaxis index (srh-69 RNAi-treated nematodes) of the same molecule?
**A.** −0.61

**Q.** What about the chemotaxis index (srh-70 RNAi-treated nematodes) of the same molecule?
**A.** −0.80

**Q.** And the chemotaxis index (srh-71 RNAi-treated nematodes)?
**A.** −0.60

**Q.** And the chemotaxis index (srh-72 RNAi-treated nematodes)?
**A.** −0.62

**Q.** And the chemotaxis index (srh-74 RNAi-treated nematodes)?
**A.** −0.89

**Q.** What about the chemotaxis index (srh-75 RNAi-treated nematodes) of the same molecule?
**A.** −0.59

**Q.** And the chemotaxis index (srh-77 RNAi-treated nematodes)?
**A.** −0.31

**Q.** And the chemotaxis index (srh-79 RNAi-treated nematodes)?
**A.** −0.17

**Q.** What about the chemotaxis index (srh-80 RNAi-treated nematodes) of the same molecule?
**A.** −0.39

**Q.** What about the chemotaxis index (srh-82 RNAi-treated nematodes) of the same molecule?
**A.** −0.65

**Q.** What about the chemotaxis index (srh-83 RNAi-treated nematodes) of the same molecule?
**A.** −0.33

**Q.** And the chemotaxis index (srh-97 RNAi-treated nematodes)?
**A.** −0.64

**Q.** And the chemotaxis index (srh-99 RNAi-treated nematodes)?
**A.** −0.61

**Q.** What about the chemotaxis index (srh-100 RNAi-treated nematodes) of the same molecule?
**A.** −0.46

**Q.** And the chemotaxis index (srh-104 RNAi-treated nematodes)?
**A.** −0.36

**Q.** And the chemotaxis index (srh-105 RNAi-treated nematodes)?
**A.** −0.61

**Q.** And the chemotaxis index (srh-109 RNAi-treated nematodes)?
**A.** −0.91

**Q.** What about the chemotaxis index (srh-111 RNAi-treated nematodes) of the same molecule?
**A.** −0.44

**Q.** And the chemotaxis index (srh-113 RNAi-treated nematodes)?
**A.** −0.43

**Q.** What about the chemotaxis index (srh-115 RNAi-treated nematodes) of the same molecule?
**A.** −0.82

**Q.** What about the chemotaxis index (srh-116 RNAi-treated nematodes) of the same molecule?
**A.** −0.82

**Q.** And the chemotaxis index (srh-118 RNAi-treated nematodes)?
**A.** −0.37

**Q.** What about the chemotaxis index (srh-119 RNAi-treated nematodes) of the same molecule?
**A.** −0.35

**Q.** What about the chemotaxis index (srh-120 RNAi-treated nematodes) of the same molecule?
**A.** −0.37

**Q.** What about the chemotaxis index (srh-122 RNAi-treated nematodes) of the same molecule?
**A.** −0.61

**Q.** And the chemotaxis index (srh-123 RNAi-treated nematodes)?
**A.** −0.32

**Q.** And the chemotaxis index (srh-125 RNAi-treated nematodes)?
**A.** −0.56

**Q.** What about the chemotaxis index (srh-128 RNAi-treated nematodes) of the same molecule?
**A.** −0.47

**Q.** What about the chemotaxis index (srh-129 RNAi-treated nematodes) of the same molecule?
**A.** −0.56

**Q.** And the chemotaxis index (srh-130 RNAi-treated nematodes)?
**A.** −0.68

**Q.** And the chemotaxis index (srh-131 RNAi-treated nematodes)?
**A.** −0.49

**Q.** And the chemotaxis index (srh-132 RNAi-treated nematodes)?
**A.** −0.19

**Q.** And the chemotaxis index (srh-139 RNAi-treated nematodes)?
**A.** −0.73

**Q.** And the chemotaxis index (srh-140 RNAi-treated nematodes)?
**A.** −0.78

**Q.** What about the chemotaxis index (srh-141 RNAi-treated nematodes) of the same molecule?
**A.** −0.49

**Q.** What about the chemotaxis index (srh-142 RNAi-treated nematodes) of the same molecule?
**A.** −0.59

**Q.** And the chemotaxis index (srh-145 RNAi-treated nematodes)?
**A.** −0.64

**Q.** And the chemotaxis index (srh-148 RNAi-treated nematodes)?
**A.** −0.67

**Q.** And the chemotaxis index (srh-154 RNAi-treated nematodes)?
**A.** −0.65

**Q.** And the chemotaxis index (srh-159 RNAi-treated nematodes)?
**A.** −0.79

**Q.** And the chemotaxis index (srh-165 RNAi-treated nematodes)?
**A.** −0.49

**Q.** And the chemotaxis index (srh-166 RNAi-treated nematodes)?
**A.** −0.74

**Q.** And the chemotaxis index (srh-167 RNAi-treated nematodes)?
**A.** −0.28

**Q.** And the chemotaxis index (srh-169 RNAi-treated nematodes)?
**A.** −0.62

**Q.** What about the chemotaxis index (srh-174 RNAi-treated nematodes) of the same molecule?
**A.** −0.45

**Q.** And the chemotaxis index (srh-179 RNAi-treated nematodes)?
**A.** −0.60

**Q.** And the chemotaxis index (srh-182 RNAi-treated nematodes)?
**A.** −0.86

**Q.** And the chemotaxis index (srh-186 RNAi-treated nematodes)?
**A.** −0.64

**Q.** And the chemotaxis index (srh-190 RNAi-treated nematodes)?
**A.** −0.64

**Q.** And the chemotaxis index (srh-193 RNAi-treated nematodes)?
**A.** −0.92

**Q.** What about the chemotaxis index (srh-195 RNAi-treated nematodes) of the same molecule?
**A.** −0.47

**Q.** What about the chemotaxis index (srh-201 RNAi-treated nematodes) of the same molecule?
**A.** −0.93

**Q.** What about the chemotaxis index (srh-203 RNAi-treated nematodes) of the same molecule?
**A.** −0.95

**Q.** What about the chemotaxis index (srh-204 RNAi-treated nematodes) of the same molecule?
**A.** −0.90

**Q.** And the chemotaxis index (srh-206 RNAi-treated nematodes)?
**A.** −0.94

**Q.** What about the chemotaxis index (srh-207 RNAi-treated nematodes) of the same molecule?
**A.** −0.81

**Q.** What about the chemotaxis index (srh-208 RNAi-treated nematodes) of the same molecule?
**A.** −0.60

**Q.** What about the chemotaxis index (srh-209 RNAi-treated nematodes) of the same molecule?
**A.** −0.85

**Q.** What about the chemotaxis index (srh-210 RNAi-treated nematodes) of the same molecule?
**A.** −0.77

**Q.** What about the chemotaxis index (srh-214 RNAi-treated nematodes) of the same molecule?
**A.** −0.98

**Q.** And the chemotaxis index (srh-216 RNAi-treated nematodes)?
**A.** −0.68

**Q.** And the chemotaxis index (srh-217 RNAi-treated nematodes)?
**A.** −0.82

**Q.** What about the chemotaxis index (srh-220 RNAi-treated nematodes) of the same molecule?
**A.** −0.47

**Q.** And the chemotaxis index (srh-222 RNAi-treated nematodes)?
**A.** −0.77

**Q.** What about the chemotaxis index (srh-223 RNAi-treated nematodes) of the same molecule?
**A.** −0.75
